Experimental data from PubChem BioAssay AID248 (DTP/NCI, 2004).
Values joined by “and” are separate entries in the source; they are usually repeats but may differ in a detail not shown here. Equal values may be shown once. Toxic doses and inconclusive results are not listed. Rule as the data show it: active = T/C of 150% or more; inactive = T/C below 125%.

System: L1210 leukemia ip in BDF1 mice, survival T/C
Experiment: NCI In Vivo Anticancer Drug Screen. Data for tumor model L1210 Leukemia (intraperitoneal) in B6D2F1 (BDF1) mice
Settings: endpoint: mean survival time, higher = longer survival
Outline: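 Antitumor effect is assessed in tumor-bearing animals. Survival in the compound arm is compared with a vehicle-dosed control arm and expressed as their quotient.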

[1] = dose: 100.0 mg/kg/injection, schedule: Q01DX009 (ip), vehicle: saline with Tween-80
[2] = dose: 200.0 mg/kg/injection, schedule: Q01DX009 (ip), vehicle: saline with Tween-80
[3] = dose: 400.0 mg/kg/injection, schedule: Q01DX009 (ip), vehicle: saline with Tween-80
[4] = dose: 100.0 mg/kg/injection, schedule: Q01DX001 (ip), vehicle: saline
[5] = dose: 200.0 mg/kg/injection, schedule: Q01DX001 (ip), vehicle: saline
[6] = dose: 400.0 mg/kg/injection, schedule: Q01DX001 (ip), vehicle: saline
[7] = dose: 100.0 mg/kg/injection, schedule: Q01DX009 (ip), vehicle: Klucel (hydroxypropylcellulose) (HPC)
[8] = dose: 200.0 mg/kg/injection, schedule: Q01DX009 (ip), vehicle: Klucel (hydroxypropylcellulose) (HPC)
[9] = dose: 400.0 mg/kg/injection, schedule: Q01DX009 (ip), vehicle: Klucel (hydroxypropylcellulose) (HPC)
[10] = dose: 100.0 mg/kg/injection, schedule: Q04DX003 (ip), vehicle: gum acacia
[11] = dose: 400.0 mg/kg/injection, schedule: Q04DX003 (ip), vehicle: gum acacia
[12] = dose: 100.0 mg/kg/injection, schedule: Q01DX001 (ip), vehicle: Klucel (hydroxypropylcellulose) (HPC)
[13] = dose: 200.0 mg/kg/injection, schedule: Q01DX001 (ip), vehicle: Klucel (hydroxypropylcellulose) (HPC)
[14] = dose: 400.0 mg/kg/injection, schedule: Q01DX001 (ip), vehicle: Klucel (hydroxypropylcellulose) (HPC)
[15] = dose: 100.0 mg/kg/injection, schedule: Q04DX003 (ip), vehicle: saline with Tween-80
[16] = dose: 200.0 mg/kg/injection, schedule: Q04DX003 (ip), vehicle: saline with Tween-80
[17] = dose: 200.0 mg/kg/injection, schedule: Q04DX003 (ip), vehicle: Klucel (hydroxypropylcellulose) (HPC)
[18] = dose: 400.0 mg/kg/injection, schedule: Q04DX003 (ip), vehicle: Klucel (hydroxypropylcellulose) (HPC)

Measured: T/C

CN(Cc1ccc(Cl)cc1)C(=O)Nc1ccccc1C(F)(F)F
inactive: [1] 108 % of control | [2] 106 % of control | [3] 103 % of control

CN(C)C=NCCNc1ccc([N+](=O)[O-])cn1
inactive: dose: 50.0 mg/kg/injection, schedule: Q01DX009 (ip), vehicle: saline with Tween-80 100 % of control | dose: 100.0 mg/kg/injection, schedule: Q01DX001 (ip), vehicle: saline with Tween-80 98 % of control | [1] 100 % of control | dose: 200.0 mg/kg/injection, schedule: Q01DX001 (ip), vehicle: saline with Tween-80 95 % of control

O=C1C=C(C2OC(CO)C(O)C2O)C(=O)N1 (stereo unspecified)
inactive: dose: 6.0 mg/kg/injection, schedule: Q01DX015 (ip), vehicle: saline 113 % of control | dose: 6.0 mg/kg/injection, schedule: Q01DX Z (ip), vehicle: saline 115 % of control | dose: 6.2 mg/kg/injection, schedule: Q01DX001 (ip), vehicle: saline 97 % of control | dose: 9.0 mg/kg/injection, schedule: Q01DX001 (ip), vehicle: saline 101 % of control | dose: 9.0 mg/kg/injection, schedule: Q01DX015 (ip), vehicle: saline 113 % of control | dose: 9.0 mg/kg/injection, schedule: Q01DX Z (ip), vehicle: saline 122 % of control | dose: 12.0 mg/kg/injection, schedule: Q01DX001 (ip), vehicle: saline 100 % of control | dose: 12.5 mg/kg/injection, schedule: Q01DX001 (ip), vehicle: saline 109 % of control | dose: 15.0 mg/kg/injection, schedule: Q01DX001 (ip), vehicle: saline 106 % of control | dose: 15.0 mg/kg/injection, schedule: Q01DX015 (ip), vehicle: saline 122 % of control | dose: 15.0 mg/kg/injection, schedule: Q01DX Z (ip), vehicle: saline 110 % of control

COc1cc(/C=N/NC(=O)c2ccccc2N)ccc1O
inactive: dose: 100.0 mg/kg/injection, schedule: Q04DX002 (ip), vehicle: Klucel (hydroxypropylcellulose) (HPC) 98 % of control | dose: 200.0 mg/kg/injection, schedule: Q04DX002 (ip), vehicle: Klucel (hydroxypropylcellulose) (HPC) 106 % of control | dose: 400.0 mg/kg/injection, schedule: Q04DX002 (ip), vehicle: Klucel (hydroxypropylcellulose) (HPC) 109 % of control

CC(C)C12CCC(C)(O1)C(O)C2O (stereo unspecified)
inactive: [4] 111 % of control | [5] 104 % of control | [6] 106 % of control

CCCCCCCC/C=C\CCCCCCCC(=O)OCCCCCCCCCCCCCCCCCC
inactive: [7] 104 % of control | dose: 100.0 mg/kg/injection, schedule: Q01DX009 (ip), vehicle: saline sonified 105 % of control | [8] 91 % of control | dose: 200.0 mg/kg/injection, schedule: Q01DX009 (ip), vehicle: saline sonified 93 % of control | [9] 105 % of control | dose: 400.0 mg/kg/injection, schedule: Q01DX009 (ip), vehicle: saline sonified 98 % of control

CC(=O)NNc1ccnc(SCc2ccccc2)n1
inactive: [10] 94 % of control | dose: 200.0 mg/kg/injection, schedule: Q04DX003 (ip), vehicle: gum acacia 87 % of control | [11] 94 % of control

COc1cc2c(cc1C)OC(C)(CC(=O)O)C2 (stereo unspecified)
inactive: [12] 103 % of control | [13] 96 % of control | [14] 96 % of control

CCC1(CC)N=C2OCCN2C1=O
inactive: dose: 12.5 mg/kg/injection, schedule: Q04DX003 (ip), vehicle: saline with Tween-80 97 % of control | dose: 25.0 mg/kg/injection, schedule: Q04DX003 (ip), vehicle: saline with Tween-80 95 % of control | dose: 50.0 mg/kg/injection, schedule: Q04DX003 (ip), vehicle: saline with Tween-80 97 % of control | [15] 94 % of control | [16] 91 % of control and 92 % of control | dose: 300.0 mg/kg/injection, schedule: Q04DX003 (ip), vehicle: saline with Tween-80 106 % of control

CC(=O)c1ccccc1N1CCCCC1
inactive: dose: 100.0 mg/kg/injection, schedule: Q04DX002 (ip), vehicle: saline 100 % of control | dose: 200.0 mg/kg/injection, schedule: Q04DX002 (ip), vehicle: saline 89 % of control

CCN(CC)CCOc1ccc(OC)cc1
inactive: dose: 25.0 mg/kg/injection, schedule: Q04DX003 (ip), vehicle: saline 91 % of control | dose: 50.0 mg/kg/injection, schedule: Q01DX009 (ip), vehicle: saline 102 % of control | dose: 50.0 mg/kg/injection, schedule: Q04DX003 (ip), vehicle: saline 115 % of control | dose: 100.0 mg/kg/injection, schedule: Q01DX009 (ip), vehicle: saline 111 % of control | dose: 100.0 mg/kg/injection, schedule: Q04DX003 (ip), vehicle: saline 104 % of control and 121 % of control

CCC(C#N)(CC)c1ccccc1
inactive: dose: 50.0 mg/kg/injection, schedule: Q01DX001 (ip), vehicle: saline 113 % of control | [4] 107 % of control | [5] 89 % of control | [6] 101 % of control

c1ccc2cc(Sc3ncnc4nc[nH]c34)ccc2c1
inactive: [1] 97 % of control | [15] 105 % of control | [2] 103 % of control | [16] 98 % of control | [3] 97 % of control | dose: 400.0 mg/kg/injection, schedule: Q04DX003 (ip), vehicle: saline with Tween-80 98 % of control

O=c1ccc(=O)n(-c2ccccc2)[nH]1
inactive: [7] 95 % of control | dose: 100.0 mg/kg/injection, schedule: Q04DX003 (ip), vehicle: Klucel (hydroxypropylcellulose) (HPC) 92 % of control | [8] 93 % of control | [17] 106 % of control | dose: 267.0 mg/kg/injection, schedule: Q04DX003 (ip), vehicle: Klucel (hydroxypropylcellulose) (HPC) 110 % of control | [9] 95 % of control | [18] 104 % of control | dose: 600.0 mg/kg/injection, schedule: Q04DX003 (ip), vehicle: Klucel (hydroxypropylcellulose) (HPC) 105 % of control

O=C(Nc1cccc([N+](=O)[O-])c1)c1ccc2c(c1)C(=O)OC2=O
inactive: [1] 95 % of control | [2] 87 % of control | [3] 93 % of control

COc1ccc(C2NC(=O)N3C(c4ccc(OC)cc4)NC(=O)N23)cc1 (stereo unspecified)
inactive: dose: 100.0 mg/kg/injection, schedule: Q01DX009 (ip), vehicle: gum acacia 105 % of control | [10] 97 % of control | dose: 200.0 mg/kg/injection, schedule: Q01DX009 (ip), vehicle: gum acacia 89 % of control | dose: 400.0 mg/kg/injection, schedule: Q01DX009 (ip), vehicle: gum acacia 93 % of control | [11] 94 % of control

O=[N+]([O-])c1ccc(C2OCCO2)cc1
inactive: dose: 100.0 mg/kg/injection, schedule: Q01DX001 (ip), vehicle: carboxymethylcellulose (CMC) 94 % of control | dose: 200.0 mg/kg/injection, schedule: Q01DX001 (ip), vehicle: carboxymethylcellulose (CMC) 91 % of control | dose: 400.0 mg/kg/injection, schedule: Q01DX001 (ip), vehicle: carboxymethylcellulose (CMC) 96 % of control

N=C(N)c1cccc(OCCCc2ccccc2)c1
inactive: [12] 100 % of control | [13] 97 % of control | [14] 100 % of control

CC1(O)CSC(C)(O)CS1 (stereo unspecified)
inactive: dose: 50.0 mg/kg/injection, schedule: Q04DX002 (ip), vehicle: saline with Tween-80 98 % of control | dose: 100.0 mg/kg/injection, schedule: Q04DX002 (ip), vehicle: saline with Tween-80 88 % of control

Cc1c2ccncc2cc2c3ccccc3n(CCO)c12
inactive: dose: 9.38 mg/kg/injection, schedule: Q01DX009 (ip), vehicle: Klucel (hydroxypropylcellulose) (HPC) 105 % of control | dose: 18.75 mg/kg/injection, schedule: Q01DX009 (ip), vehicle: Klucel (hydroxypropylcellulose) (HPC) 107 % of control | dose: 18.75 mg/kg/injection, schedule: Q04DX003 (ip), vehicle: Klucel (hydroxypropylcellulose) (HPC) 97 % of control | dose: 37.5 mg/kg/injection, schedule: Q01DX009 (ip), vehicle: Klucel (hydroxypropylcellulose) (HPC) 107 % of control | dose: 37.5 mg/kg/injection, schedule: Q04DX003 (ip), vehicle: Klucel (hydroxypropylcellulose) (HPC) 107 % of control | dose: 75.0 mg/kg/injection, schedule: Q04DX003 (ip), vehicle: Klucel (hydroxypropylcellulose) (HPC) 105 % of control | [17] 98 % of control | [18] 104 % of control
